# According to US20050214285A1, “Epitopes or mimotopes derived from the C-epsilon-3 or C-epsilon-4 domains of IgE, antagonists thereof, and their therapeutic uses” (SmithKline Beecham Biologicals, s.a. and Peptide …, priority 1999, published 2005):
# Key:
# [1] = tested on: PTmAb0011; assay: Phage display ranking of peptide ligands for PTmAb0011; assay type: binding, mouse; details: for Rank (ECL) PTmAb0011: primary phage display biopannings (Table 7); for PTmAb Rank 0011: IgEC67 mutants (Table 8)
# Text: (§1) Phage display libraries were used to map the binding sites of the monoclonal antibodies using three different phage libraries, displaying either the XCX15, XCX10 or XAX10 peptide sequence (where X is any amino acid) at the N-terminus of the phage gVIIIp. Tables 6 and 7 show the results of selecting for peptide ligands with the anti human IgE monoclonal antibodies […]. […]
# (§2) This involved a DNA sub-cloning transfer from the major coat protein (gVIIIp) filamentous phage display vector to a lower copy number minor phage coat protein (gIIIp) display vector with a random PCR step. […] Included in the tables are ranking orders and also BIAcore affinities where available.
# [2] = tested on: PTmAb0005; assay: Phage display ranking of peptide ligands for PTmAb0005; assay type: binding; details: for PTmAb Rank 0005: IgEC67 mutants (Table 8); for Rel. Rank A / Rel. Rank B: IgEC67-8 mutants (Table 9); for Rank (ECL) PTmAb0005: primary phage display biopannings (Table 6)
# Experimental: as §1
# This was performed by introducing random mutations by PCR mutagenesis and sub-cloning into the Fuse 5 vector for minor filamentous phage protein gIIIp display. These, and other results, confirmed the importance of the amino acids within IgEC67 which aligned with the Cε2 epitope. […] Mutations in other sites had little effect on the affinity to PTmAb0005.
# as §2
Sequence,Rel. Rank A [2],Rel. Rank B [2],Rank (ECL) PTmAb0005 [2],also measured
ACFSRNGQVTDVPHSCY [EEC41],–,–,–,Rank (ECL) PTmAb0011 [1]: 31
ADGAACFMNKQMADLELCPRVAAEA [IgEC67-2],–,–,–,PTmAb Rank 0011 [1]: 1.8; PTmAb Rank 0005 [2]: 3.2
"ADGAECFINKQMADRELCAREVAEA [Peptide 2-12, IgEC67-8 mutant clone]",1.22,1.50,–,–
"ADGAECFINKQRADLELCPGEAAEA [4-2,4-3, IgEC67-8 mutant clone]",1.11,1.60,–,–
"ADGAECFINRQMADLELCGREAAEA [Peptide 4-4, IgEC67-8 mutant clone]",0.69,1.03,–,–
ADGAECFMNKQLADSELCPRVAAEA [IgEC67-13],–,–,–,PTmAb Rank 0011 [1]: 0.8; PTmAb Rank 0005 [2]: 1.1
"ADGAGCFIDKQMADLELCPRAAAEA [1-9,2-5, IgEC67-8 mutant clone]",1.21,1.41,–,–
"ADGAGCFIEKQMADMELCQARAAEA [Peptide 1-8, IgEC67-8 mutant clone]",1.08,1.32,–,–
"ADGAGCFIEKQMADMELCQRETAEA [Peptide 1-1, IgEC67-8 mutant clone]",1.04,1.29,–,–
"ADGAGCFIKKQMADLELCPREAWEA [Peptide 4-1, IgEC67-8 mutant clone]",1.24,1.52,–,–
ADGAGCFINKQLADLELCPREAAEA [IgEC67-12],–,–,–,PTmAb Rank 0011 [1]: 1.9; PTmAb Rank 0005 [2]: 3
ADGAGCFINKQLADLELCPRVAAEA [IgEC67-3],–,–,–,PTmAb Rank 0011 [1]: 1.7; PTmAb Rank 0005 [2]: 3
"ADGAGCFINKQMADLELCPARAAEA [Peptide 1-7, IgEC67-8 mutant clone]",0.91,1.25,–,–
"ADGAGCFINKQMADLELCPREAAEA [2-8,1-13,4-11,1-14, IgEC67-8 sub-library clone]",1.00,1.00,–,–
"ADGAGCFINKQMADLELCPREGAEA [1-4,1-2,1-12, IgEC67-8 mutant clone]",1.37,1.39,–,–
"ADGAGCFINKQMADLELCPRQAAEA [3-1,3-9,3-10, IgEC67-8 mutant clone]",1.54,1.85,–,–
"ADGAGCFINKQMADLELCPSQAAEA [Peptide 4-9, IgEC67-8 mutant clone]",1.38,1.70,–,–
"ADGAGCFINKQMADLELCRREAGEA [2-9,2-6, IgEC67-8 mutant clone]",1.19,1.54,–,–
"ADGAGCFINKQMADLELCTREAAEA [Peptide 3-11, IgEC67-8 mutant clone]",1.54,2.02,–,–
"ADGAGCFINKQMADMELCPREAAEA [Peptide 2-3, IgEC67-8 mutant clone]",1.03,1.31,–,–
"ADGAGCFINKQMADSELCPAAAAEA [Peptide 1-10, IgEC67-8 mutant clone]",1.10,1.08,–,–
"ADGAGCFINKQMADSELCPREPAEA [Peptide 5-16, IgEC67-8 mutant clone]",1.29,1.83,–,–
"ADGAGCFINKQMADWELCPREAAEA [Peptide 5-10, IgEC67-8 mutant clone]",1.05,1.83,–,–
"ADGAGCFINKQMADWELCPREGAEA [Peptide 2-15, IgEC67-8 mutant clone]",1.44,1.57,–,–
"ADGAGCFINKQMSDFELCPREAGEA [Peptide 2-13, IgEC67-8 mutant clone]",1.56,2.14,–,–

Sequence,Rel. Rank A [2],Rel. Rank B [2],Rank (ECL) PTmAb0005 [2],also measured
"ADGAGCFINMQMADQELCPRAAAEA [Peptide 1-3, IgEC67-8 mutant clone]",1.73,1.31,–,–
"ADGAGCFINNQMADLELCPREAAEA [Peptide 5-2, IgEC67-8 mutant clone]",1.04,1.24,–,–
"ADGAGCFINNQMADLELCPRGGAEA [Peptide 1-11, IgEC67-8 mutant clone]",1.45,1.32,–,–
"ADGAGCFINRQLADMELCSRGAAEA [2-11,2-4,2-10,2-7, IgEC67-8 mutant clone]",0.79,1.39,–,–
"ADGAGCFINRQMADPELCPREAAEA [Peptide 5-11, IgEC67-8 mutant clone]",1.09,1.97,–,–
"ADGAGCFISPQLADWKRCMREAAEA [6-9,5-1,6-2,6-8,6-4]",1.53,1.19,–,–
"ADGAGCFKNKQMVDSELCARQAAEA [Peptide 1-16, IgEC67-8 mutant clone]",1.14,1.17,–,–
ADGAGCFMNKQLADLELCPREAAEA [IgEC67-7],–,–,–,PTmAb Rank 0011 [1]: 1; PTmAb Rank 0005 [2]: 1
"ADGAGCFQNKQMADLELCPREAAEA [Peptide 1-5, IgEC67-8 mutant clone]",1.13,1.73,–,–
"ADGAGCFRNKQMADLELCPREAAEA [Peptide 1-6, IgEC67-8 mutant clone]",0.95,1.16,–,–
ADGAGCSIHRQMADWERCLREGAEA [Peptide 6-10],0.91,0.69,–,–
"ADGAGCSIHTQMADWERCLREGAEA [6-12,5-8]",0.93,0.67,–,–
AENDQMVDWEI [SB21/33/31],–,–,0,–
CAPGMGCWESVK [ESB13],–,–,0,–
CCESDIPLNELHALADP [IgEC70],–,–,0,–
CCEVDDFPTHHPGWTLR [ESC4],–,–,0,–
CCITDVPQGVMYKGSPD [ESC18],–,–,0,–
CCKSDIPSPVTQFNTMK [IgEC64],–,–,0,–
CCLSDDAPTLPVRR [IgEC75],–,–,0,–
CCMADQELDLGHNAANA [ESC20],–,–,0,–
CCMSDTPDISRLPVPDS [IgEC72],–,–,0,–
CCMTDDPMDPNSTWAIR [ESC12],–,–,0,–
CCMTDDPMYTNSTWAIR [ESC43],–,–,0,–
CCQRDVELVFGS [ESD38],–,–,0,–
CCRADFEVGNGG [ESD15],–,–,0,–

Sequence,Rel. Rank A [2],Rel. Rank B [2],Rank (ECL) PTmAb0005 [2],also measured
CCVDDTPNSGLAMRVSK [ESC1],–,–,0,–
CCVMDIEVRGSA [ESD14],–,–,0,–
CCVMDLELASGF [ESD36],–,–,0,–
CCVSDEPAGVRD [ESD6/10/40],–,–,0,–
CQAMDAEILNQV [ESB12],–,–,0,–
DCEEPMCSPVLLQKLKP [EEC17/47/25],–,–,–,Rank (ECL) PTmAb0011 [1]: 147
DCLSKGQMADLC [EED147/173],–,–,–,Rank (ECL) PTmAb0011 [1]: 281
DCVVDGDRLVCL [EED34/104],–,–,–,Rank (ECL) PTmAb0011 [1]: 3
ECKVDGQLSDSPLLRNN [ESC45],–,–,0,–
ECNQNLSGSLRHVDLNC [EEC40],–,–,–,Rank (ECL) PTmAb0011 [1]: 547
ECPRWPLMGDGC [EED139],–,–,–,Rank (ECL) PTmAb0011 [1]: 26
ECRGPNMQMQDHCPTTD [IgEC9],–,–,10,–
FCPEPICSPPLSRMTLS [EEC147],–,–,–,Rank (ECL) PTmAb0011 [1]: 883
GCPMWPQPDDEC [EED132],–,–,–,Rank (ECL) PTmAb0011 [1]: 28
GCPTWPRVGDHC [EED36],–,–,–,Rank (ECL) PTmAb0011 [1]: 52
GCQVGELVWCRE [EED134],–,–,–,Rank (ECL) PTmAb0011 [1]: 14
GGWQESDIPGR [ESB32],–,–,0,–
GQMMDTELLNR [ESB1/6etc],–,–,0,–
HCCRIDREVSGA [ESB24],–,–,0,–
HCEEPEYSPATRVFCGR [EEC51/48/53],–,–,–,Rank (ECL) PTmAb0011 [1]: 75
HCKNEFKKGQWTYSCSD [IgEC43],–,–,0,–
HCQQVFFPQDYLWCQRG [EEC36],–,–,–,Rank (ECL) PTmAb0011 [1]: 158
KCPTYPKPNDRCLWPVP [EEC135],–,–,–,Rank (ECL) PTmAb0011 [1]: 19
MCQGWEIVSECW [EED57],–,–,–,Rank (ECL) PTmAb0011 [1]: 0
NCNDNPMLDCMPAWSS [EEC5],–,–,–,Rank (ECL) PTmAb0011 [1]: 0

Sequence,Rel. Rank A [2],Rel. Rank B [2],Rank (ECL) PTmAb0005 [2],also measured
NCQDQMLREDAGCWSKI [EEC40A],–,–,–,Rank (ECL) PTmAb0011 [1]: 80
QCVRDGTRKVCM [EED33],–,–,–,Rank (ECL) PTmAb0011 [1]: 7
QIDRQITDTLL [ESB15],–,–,0,–
RCDQQLPRDSYTFCMMS [EEC115/3/48],–,–,–,Rank (ECL) PTmAb0011 [1]: 438
RCEQGALRCVGE [EED41/56],–,–,–,Rank (ECL) PTmAb0011 [1]: 0
RCQSARVVPECW [EED131/138/102],–,–,–,Rank (ECL) PTmAb0011 [1]: 32
REQQISDVPRV [ESB26],–,–,0,–
RGRNQIMDLEI [ESB29/36],–,–,0,–
SCAPSGDCGYKG [EED18/47/48],–,–,–,Rank (ECL) PTmAb0011 [1]: 31
SCNLNHQSCDIPPVKQI [ESC46],–,–,0,–
SCQGREVRRECW [EED183],–,–,–,Rank (ECL) PTmAb0011 [1]: 596
SMEGQVRDIQV [ESB7],–,–,0,–
SMGQEVDRELV [ESB40],–,–,0,–
SMGQKVDRELV [ESB9],–,–,0,–
TCCVTDIPPPDYEQSLG [IgEC83],–,–,0,–
TCGQSELRCASLETHHV [EEC55],–,–,–,Rank (ECL) PTmAb0011 [1]: 0
TCLVDRQESDVC [EED50],–,–,–,Rank (ECL) PTmAb0011 [1]: 6
VCDECVSRELAL [EED35/53/164],–,–,–,Rank (ECL) PTmAb0011 [1]: 330
VCDECVSRELAL [EED35/153/164],–,–,–,Rank (ECL) PTmAb0011 [1]: 118
VCPPGWKNLGCN [EED51],–,–,–,Rank (ECL) PTmAb0011 [1]: 0
WCLEPECAPGLL [EED38],–,–,–,Rank (ECL) PTmAb0011 [1]: 330
YCPKYPLEGDCLLDNDY [EEC116],–,–,–,Rank (ECL) PTmAb0011 [1]: 4
YQQRDLELLAE [ESB18],–,–,0,–
